Read-outs that look alike come from different tables or passages of the source.
How the values were obtained:
NCI-H226 = experiment: NCI-60 five-dose assay; type: cell-based, human; settings: NCI-H226, Non-Small Cell Lung Cancer
MALME-3M = experiment: NCI-60 five-dose assay; type: cell-based, human; settings: MALME-3M, Melanoma
Renal Cancer subpanel = experiment: NCI-60 five-dose assay, subpanel; type: cell-based, human; settings: Renal Cancer
COLO 205 = experiment: NCI-60 five-dose assay; type: cell-based, human; settings: COLO 205, Colon Cancer
EGFR = EGFR (Homo sapiens, UniProt P00533); experiment: EGFR inhibitory assay
Sequence of EGFR (P00533 669-1210): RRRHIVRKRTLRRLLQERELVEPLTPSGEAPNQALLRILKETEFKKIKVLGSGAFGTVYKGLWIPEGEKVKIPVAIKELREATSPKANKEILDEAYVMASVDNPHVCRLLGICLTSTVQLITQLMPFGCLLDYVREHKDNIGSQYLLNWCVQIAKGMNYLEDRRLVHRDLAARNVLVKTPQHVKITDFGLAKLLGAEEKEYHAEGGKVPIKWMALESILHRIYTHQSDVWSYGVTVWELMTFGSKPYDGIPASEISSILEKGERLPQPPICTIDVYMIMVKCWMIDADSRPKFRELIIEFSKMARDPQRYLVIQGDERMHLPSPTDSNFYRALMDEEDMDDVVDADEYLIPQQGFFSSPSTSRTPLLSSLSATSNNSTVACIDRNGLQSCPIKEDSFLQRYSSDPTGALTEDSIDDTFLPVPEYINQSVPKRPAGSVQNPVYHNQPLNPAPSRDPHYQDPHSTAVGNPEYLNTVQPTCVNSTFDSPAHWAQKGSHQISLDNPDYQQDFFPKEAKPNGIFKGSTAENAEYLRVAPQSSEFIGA

M14 = experiment: NCI-60 five-dose assay; type: cell-based, human; settings: M14, Melanoma
Melanoma subpanel = experiment: NCI-60 five-dose assay, subpanel; type: cell-based, human; settings: Melanoma
SK-OV-3 = experiment: NCI-60 five-dose assay; type: cell-based, human; settings: SK-OV-3, Ovarian Cancer
NCI/ADR-RES = experiment: NCI-60 five-dose assay; type: cell-based, human; settings: NCI/ADR-RES, Ovarian Cancer
Breast Cancer subpanel = experiment: NCI-60 five-dose assay, subpanel; type: cell-based, human; settings: Breast Cancer
Ovarian Cancer subpanel = experiment: NCI-60 five-dose assay, subpanel; type: cell-based, human; settings: Ovarian Cancer
MDA-MB-231 = experiment: NCI-60 five-dose assay; type: cell-based, human; settings: MDA-MB-231, Breast Cancer
[1] = system: full panel of 60 human tumor cell lines; experiment: NCI-60 five-dose assay, full panel; type: cell-based
MCF7 = experiment: NCI-60 five-dose assay; type: cell-based, human; settings: MCF7, Breast Cancer
OVCAR-3 = experiment: NCI-60 five-dose assay; type: cell-based, human; settings: OVCAR-3, Ovarian Cancer
ACHN = experiment: NCI-60 five-dose assay; type: cell-based, human; settings: ACHN, Renal Cancer
OVCAR-5 = experiment: NCI-60 five-dose assay; type: cell-based, human; settings: OVCAR-5, Ovarian Cancer
SK-MEL-28 = experiment: NCI-60 five-dose assay; type: cell-based, human; settings: SK-MEL-28, Melanoma
SW-620 = experiment: NCI-60 five-dose assay; type: cell-based, human; settings: SW-620, Colon Cancer
HCT-15 = experiment: NCI-60 five-dose assay; type: cell-based, human; settings: HCT-15, Colon Cancer
786-0 = experiment: NCI-60 five-dose assay; type: cell-based, human; settings: 786-0, Renal Cancer
U251 = experiment: NCI-60 five-dose assay; type: cell-based, human; settings: U251, CNS Cancer
UACC-62 = experiment: NCI-60 five-dose assay; type: cell-based, human; settings: UACC-62, Melanoma
NCI-H322M = experiment: NCI-60 five-dose assay; type: cell-based, human; settings: NCI-H322M, Non-Small Cell Lung Cancer
A498 = experiment: NCI-60 five-dose assay; type: cell-based, human; settings: A498, Renal Cancer
BT-549 = experiment: NCI-60 five-dose assay; type: cell-based, human; settings: Homo sapiens, BT-549, Breast Cancer
[2] = Homo sapiens, read-out: GI50 Conc. per Cell Line
[3] = Homo sapiens, read-out: LC50 (the source's name)
[4] = Homo sapiens, average sensitivity of all subpanel cell lines, read-out: GI50 Subpanel MID b

## COc1ccc(C=NNC(=O)c2ccc3[nH]c(-c4ccc(Cl)cc4)nc3c2)cc1 [Compound 4g, N′-(4-Methoxybenzylidene)-2-(4-chlorophenyl)-1H-benzimidazole-5-carbohydrazide]
NCI-H226; [2]
  GI50: 1.79 µM
NCI-H226; [3]
  CC50: 13.5 µM
NCI-H226
  TGI: 4.43 µM
MALME-3M; Homo sapiens
  LC50: 7.9 µM
MALME-3M; [2]
  GI50: 1.67 µM
MALME-3M
  TGI: 3.63 µM
Renal Cancer subpanel; [4]
  GI50: 2.2 µM
Renal Cancer subpanel
  GI50 Selectivity Ratio (MID a/MID b): 1.14
COLO 205
  TGI: 5.43 µM
COLO 205; [2]
  GI50: 1.94 µM
COLO 205; [3]
  CC50: 33 µM
EGFR
  IC50: 0.27 ± 0.03 µM
M14; [2]
  GI50: 2.41 µM
M14; [3]
  CC50: 40.5 µM
M14
  TGI: 7.76 µM
Melanoma subpanel; [4]
  GI50: 2.43 µM
Melanoma subpanel
  GI50 Selectivity Ratio (MID a/MID b): 1.04
SK-OV-3; [2]
  GI50: 2.3 µM
SK-OV-3; [3]
  CC50: 59.1 µM
SK-OV-3
  TGI: 12.80 µM
NCI/ADR-RES; [2]
  GI50: 7.81 µM
NCI/ADR-RES; [3]
  CC50: > 100 µM
NCI/ADR-RES
  TGI: >100 µM
Breast Cancer subpanel
  GI50 Selectivity Ratio (MID a/MID b): 1.12
Breast Cancer subpanel; [4]
  GI50: 2.24 µM
Ovarian Cancer subpanel; [4]
  GI50: 3.05 µM
Ovarian Cancer subpanel
  GI50 Selectivity Ratio (MID a/MID b): 0.83
MDA-MB-231; [2]
  GI50: 2.42 µM
MDA-MB-231; [3]
  CC50: 18.8 µM
MDA-MB-231
  TGI: 5.45 µM
[1]; average sensitivity of all cell lines, read-out: MID a (GI50)
  GI50: 2.52 µM
[1]; five-dose assay, range over cell lines, read-out: GI50 range over the examined cell lines
  GI50: 0.997 to 7.81 µM
MCF7; [2]
  GI50: 1.47 µM
MCF7; [3]
  CC50: 10 µM
MCF7
  TGI: 3.84 µM
OVCAR-3; [2]
  GI50: 2.28 µM
OVCAR-3; [3]
  CC50: 16 µM
OVCAR-3
  TGI: 5.14 µM
ACHN
  TGI: 5.04 µM
ACHN; [2]
  GI50: 2 µM
ACHN; [3]
  CC50: 16.9 µM
OVCAR-5; [2]
  GI50: 2.35 µM
OVCAR-5; [3]
  CC50: 33.5 µM
OVCAR-5
  TGI: 6.89 µM
SK-MEL-28; [2]
  GI50: 1.79 µM
SK-MEL-28; [3]
  CC50: 6.35 µM
SK-MEL-28
  TGI: 3.37 µM
SW-620; Homo sapiens
  LC50: 31 µM
SW-620; [2]
  GI50: 2.41 µM
SW-620
  TGI: 5.58 µM
HCT-15
  TGI: 12.80 µM
HCT-15; [2]
  GI50: 3.24 µM
HCT-15; [3]
  CC50: 82 µM
786-0
  TGI: 3.67 µM
786-0; [2]
  GI50: 1.93 µM
786-0; [3]
  CC50: 6.98 µM
U251; Homo sapiens, U-251, read-out: GI50 Conc. per Cell Line
  GI50: 2.43 µM
U251; Homo sapiens, U-251, read-out: LC50 (the source's name)
  CC50: 30.4 µM
U251
  TGI: 5.22 µM
UACC-62; [2]
  GI50: 1.94 µM
UACC-62; [3]
  CC50: 10.9 µM
UACC-62
  TGI: 4.47 µM
NCI-H322M; [2]
  GI50: 2.49 µM
NCI-H322M; [3]
  CC50: 55.4 µM
NCI-H322M
  TGI: 7.20 µM
A498
  TGI: 9.87 µM
A498; [2]
  GI50: 2.45 µM
A498; [3]
  CC50: 54.6 µM
BT-549; read-out: GI50 Conc. per Cell Line
  GI50: 3.36 µM
BT-549; read-out: LC50 (the source's name)
  CC50: > 100 µM

Source: paper PMC10819888, “Benzimidazole-Based Derivatives as Apoptotic Antiproliferative Agents: Design, Synthesis, Docking, and Mechanistic Studies” (Molecules, 2024)
